Experimental data from patent US8630703B2, “Treatment utilizing hydrophobic weak bases chemotherapeutic agents and illumination” (Technion Research & Development Foundation Limited, priority 2011, dated 2014).
Where two headings read alike, the source gives them in different places.

Experiments:
[1] = system: MDR SW/2R160 and 2008/MRP1 cells; test: XTT cytotoxicity, result stated jointly for MDR cells; type: cell-based
Experimental: (§1) Parental cells and their MDR (multi-drug resistant) sub-lines were seeded in 96-well plates (2×10^4 cells/well in 90 μl growth medium/well). […] Following incubation for 2 hours, the drug-containing medium was replaced by drug-free medium. The cells were then placed on an illuminator plate (Model 460, thin line series, S&S X-Ray Products Inc., Brooklyn, N.Y.) for 1 hour, thereby achieving a light dose of 5 J/cm^2 white light. After illumination, plates were further incubated for an additional 24 hours.
(§2) Cell viability was determined using an XTT (2,3-bis-(2-methoxy-4-nitro-5-sulfophenyl)-2H-tetrazolium-5-carboxanilide) Cell Proliferation Kit (Biological Industries). The drug concentrations required to inhibit cell growth by 50% (i.e., IC50 values) were determined from the cell survival curves in the absence and in the presence of illumination. Results are presented as mean values of at least three independent experiments.

[2] = system: human umbilical vein endothelial cells (HUVEC); test: Fluorescence microscopy of endothelial cells; type: cell-based; settings: 1 μM
Experimental: Human umbilical vein endothelial cells (HUVEC) were isolated by perfusion of umbilical veins (Department of Obstetrics and Gynaecology, VU University Medical Center) with trypsin. Cells were routinely cultured in RPMI-1640 medium (Life Technologies, Breda, The Netherlands) supplemented with 10% heat-inactivated human serum, 10% heat-inactivated FCS, 2 mM L-glutamine (Life Technologies, Netherlands), […] streptomycin and 50 U/ml penicillin (ICN Biomedicals) in a 0.2% gelatin coated 75 cm^2 tissue culture flask at 37° C. in an atmosphere with 5% CO2. HUVEC used for experiments were cultured without addition of extra growth factors and used for experiments between passage 2 and 4.
Freshly-isolated human umbilical vein endothelial cells (HUVEC), RF24 immortalized HUVEC cells, and human dermis derived endothelial cells (HMEC) were obtained and grown in vitro as described in the Materials and Methods section hereinabove. The cells were then seeded at 10^4 cells/well in a 24-well tissue culture plate. Twenty four hours after seeding, the cells were incubated for 1 hour with 10 or 1 μM of either C-1375, C-1379 or sunitinib. After this incubation, the cells in the 24-well plates were evaluated by fluorescence microscopy. […]

[3] = system: A549/K1.5 cells; test: XTT cytotoxicity assay with and without illumination; type: cell-based, Human; settings: A549/K1.5
Experimental: Human non-small cell lung cancer A549 cells and their ABCG2-overexpressing MDR (multi-drug resistant) A549/K1.5 sub-line; ovarian carcinoma cell line 2008 and its stable MRP1-transfectant 2008/MRP1; and human non-small lung cancer cell line SW1573 and its ABCB1-overexpressing subline SW1573/2R160) were maintained in RPMI-1640 medium supplemented with 10% fetal bovine serum, 2 mM glutamine, 100 μg/ml penicillin and streptomycin (Biological Industries, Beth-Haemek, Israel) in a humid atmosphere containing 5% CO2 at 37° C.
as §1, §2

[4] = system: SW1573/2R160 cells; test: as above
Experimental: Cells were grown in drug-free conditions for one week before any analysis.
as §1
(§3) Cell viability was determined using an XTT (2,3-bis-(2-methoxy-4-nitro-5-sulfophenyl)-2H-tetrazolium-5-carboxanilide) Cell Proliferation Kit (Biological Industries). […] Results are presented as mean values of at least three independent experiments.

[5] = Absorption, emission and excitation spectra; type: physicochemical; settings: aqueous 0.9% NaCl
Experimental: Stock solutions containing sunitinib or the imidazoacridinones (IAs) C-1375 and C-1379 in 100% dimethyl sulfoxide were diluted with aqueous 0.9% NaCl solution under continuous stirring. Absorption spectra were recorded with a two-beam Cary 500 UV-VIS-NIR spectrophotometer (Varian) in 1 cm long Suprasil® quartz cuvettes (Hellma), at an average scan speed of 600 nm/minute, at 20° C. The steady state emission and excitation spectra were recorded with an LS 50B luminescence spectrometer (Perkin-Elmer).

[6] = system: chicken chorioallantoic membrane (CAM) vasculature; test: Chorioallantoic membrane (CAM) model of photodynamic therapy; type: in vivo; settings: 100 μg/embryo i.v.; 420 nm, 20 J/cm^2, 1 minute after injection; 24 hours after treatment
Experimental: Fertilized chicken eggs (Animalco AG) were labeled and transferred into a hatching incubator with a relative air humidity of 65% and a temperature of 37° C. The incubator was equipped with an automatic fan (Savimat). On embryonic development day (EDD) 3, a hole of approximately 3 mm in diameter was opened in the eggshell above the air pouch of the egg and covered with Parafilm® wrapping film (Pechiney) to prevent dehydration and possible infections. The eggs were then returned to the incubator in a static position until use. On EDD 11, the hole in the shell was extended to a diameter of approximately 3 cm in order to provide better access to the chorioallantoic membrane (CAM) during experiments.
Eggs were placed under an Eclipse 600 FN epi-fluorescence microscope equipped with a Plan Apo 4/0.2, working distance 20 objective (Nikon). Microscopic observation and illumination of a region of the CAM was performed as described previously [Lim et al., Photochem Photobiol 2010, 86:397-402; Lim et al., J Med Chem 2010, 53:2865-2874; Nowak-Sliwinska et al., Angiogenesis 2010, 13:281-292]. Illumination was provided by a 100 W high pressure Hg-arc lamp. Light doses were adjusted with neutral density filters and measured with a calibrated Field-Master GS power meter (Coherent Inc.). Fluorescence images were acquired with an F-view II 12-bit monochrome Peltier-cooled digital CCD camera driven with analySIS DOCU software (Soft Imaging System GmbH).
For excitation and detection of imidazoacridinones (IAs) or sunitinib, the microscope was equipped with a filter set (Nikon) characterized by excitation wavelengths of 420±20 nm and emission wavelengths of >470 nm,
After the treatment the eggs were numbered, covered and returned to the incubator. Each treatment group included 5 eggs.
Chorioallantoic membranes (CAMs) were intravenously injecting chorioallantoic membranes with 20 μl of a solution of FITC-dextran (20 kDa, 25 mg/ml). Fluorescence angiography was then performed using light from an Hg-arc lamp and light filters (Nikon) which provided excitation wavelengths of 470±20 nm and emission wavelengths of >520 nm for observing the fluorescence. In order to increase the quality of the recorded angiographs, a light absorber, in the form of India ink, was injected (30 μl) into the extra-embryonic cavity. The purpose of this second injection was to decrease the influence of the CAM auto-fluorescence background, which changes rapidly with time due to the embryo's movement. The India ink was filtered shortly before injection, using a sterile cellulose acetate membrane with 0.2 μm pores (Renner GmbH).
Photodynamic therapy (PDT) was performed at embryo development day (EDD) 11, at which stage the CAM is fully developed and contains a vessel network with a regular capillary plexus. The imidazoacridinones were intravenously injected into the main vessel of the CAM through a 33-gauge needle fitted to a 100 μl syringe (Hamilton), at a concentration of 1 mg/ml and a volume of 100 μl, which corresponds to a dose of 100 μg, or approximately 10 mg/kg embryo body weight.
One minute after injection, a region of the CAM which contained vessels of diameters in a range of 5 to 70 μm was illuminated (420±20 nm) at a light dose of 20 J/cm^2 and an irradiance of […]. […]
The illuminated area was 0.02 cm^2, as delimited by an optical diaphragm. The fluorescence of sunitinib was visible in the vasculature of the CAMs prior to PDT.

[7] = system: 2008/MRP1 cells; test: XTT cytotoxicity assay with and without illumination
Experimental: as §1, §3

[8] = system: 2008 cells; test: as above
Experimental: as §1, §3

[9] = system: human dermis derived endothelial cells (HMEC); test: Fluorescence microscopy of endothelial cells; type: cell-based; settings: 1 μM, blue light (420 nm)
Experimental: Endothelial cell lines RF24 and HMEC, were provided by Dr. H. Pannekoek (CLB, Amsterdam, Netherlands) and Dr. D van der Schaft (Maastricht University), respectively.
Freshly-isolated human umbilical vein endothelial cells (HUVEC), RF24 immortalized HUVEC cells, and human dermis derived endothelial cells (HMEC) were obtained and grown in vitro as described in the Materials and Methods section hereinabove. The cells were then seeded at 10^4 cells/well in a 24-well tissue culture plate. Twenty four hours after seeding, the cells were incubated for 1 hour with 10 or 1 μM of either C-1375, C-1379 or sunitinib. After this incubation, the cells in the 24-well plates were evaluated by fluorescence microscopy. For excitation and detection of imidazoacridinones (IAs) or sunitinib, the microscope was equipped with a filter set (Nikon) characterized by excitation wavelengths of 420±20 nm and emission wavelengths of >470 nm.

[10] = system: A549 cells; test: XTT cytotoxicity assay with and without illumination
Experimental: as §1, §3

[11] = system: SW1573 cells; test: as above
Experimental: as §1, §3

SMILES: COc1ccc2c(c1)c(=O)c1c(NCCCN(C)C)ccc3nc(C)n2c31 [C-1375]
- IC50 ([1]; illumination, read-out: IC50 with illumination): 90 to 330 nM
- IC50 ([1]; no illumination, read-out: IC50 in the absence of illumination): 3300 to 5500 nM
- photodestruction of lysosomes ([2]; approximately 2 minutes of illumination): most of the lysosomes had disappeared
- photodestruction of lysosomes ([2]; illumination 1 minute (420 nm)): many lysosomes were destroyed
- Fold sensitization ([3]; control vs illumination): 10
- LD50 Control ([3]; no illumination): 5.264 ± 0.877 µM
- Survival at 3000 nM Control ([3]; no illumination): 70 ± 5%
- LD50 Illumination ([3]; white light 1 hour (5 J/cm^2)): 541 ± 56 nM
- Survival at 3000 nM Illumination ([3]; white light illumination): 3 ± 0.6%
- Fold sensitization ([4]; control vs illumination): 13
- C-1375 LD50 Illumination ([4]; illumination): 330 ± 56 nM
- Survival at 1000 nM Illumination ([4]; illumination): 24 ± 4%
- C-1375 LD50 Control ([4]; no illumination): 4.384 ± 0.125 µM
- Survival at 1000 nM Control ([4]; no illumination): 74 ± 3%
- Peak absorption [5]: 444 nm
- Peak emission [5]: 553 nm
- Peak excitation [5]: 449 nm
- vascular effect in illuminated area [6]: vaso-occlusion within the illuminated area
- Fold sensitization ([7]; control vs illumination): 51
- C-1375 LD50 Illumination ([7]; illumination): 101 ± 0.1 nM
- Survival at 1000 nM Illumination ([7]; illumination): 13 ± 3%
- C-1375 LD50 Control ([7]; no illumination): 5.115 ± 0.889 µM
- Survival at 1000 nM Control ([7]; no illumination): 80 ± 2%
- Fold sensitization ([8]; control vs illumination): 36
- C-1375 LD50 Illumination ([8]; illumination): 90 ± 9 nM
- Survival at 1000 nM Illumination ([8]; illumination): 11 ± 4%
- C-1375 LD50 Control ([8]; no illumination): 3.28 ± 0.345 µM
- Survival at 1000 nM Control ([8]; no illumination): 72 ± 0.8%
- photodestruction of lysosomes [9]: lysosome destruction and accumulation of C-1375 in the nuclei also occurred
- Fold sensitization ([10]; control vs illumination): 14
- Survival at 3000 nM Control ([10]; no illumination): 50 ± 3%
- LD50 Control ([10]; no illumination, 2 h drug, XTT 24 h later): 3.054 ± 0.26 µM
- LD50 Illumination ([10]; white light 1 hour (5 J/cm^2)): 212 ± 29 nM
- Survival at 3000 nM Illumination ([10]; white light illumination): 3 ± 2%
- Fold sensitization ([11]; control vs illumination): 24
- C-1375 LD50 Illumination ([11]; illumination): 233 ± 5 nM
- Survival at 1000 nM Illumination ([11]; illumination): 11 ± 2%
- C-1375 LD50 Control ([11]; no illumination): 5.535 ± 0.596 µM
- Survival at 1000 nM Control ([11]; no illumination): 68 ± 6%
